Patent US11834453B2, “Substituted pyrimido[5,4-d]pyrimidines as HER2 inhibitors” (Array BioPharma Inc., priority 2020, dated 2023)

How the values were obtained:
MDR1 (P-gp) = MDR1 (P-gp) (Homo sapiens (Human), UniProt P08183); assay: MDR1 transfected LLC-PK1 permeability/efflux, Assay 6; conditions: pig
EGFR = EGFR (Homo sapiens (Human), UniProt P00533); assay: ErbB enzyme assay (CisBio HTRF KinEASE-TK), Assay 3; assay type: biochemical
Outline: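 HTRF dual-wavelength read after 1 h detection; POC normalised to DMSO (100) and pre-quenched (0) controls, IC50 where 4-parameter curve crosses 50 POC. Reaction: 250 nM TK-substrate biotin, 1 mM ATP, pH 7.4 HEPES buffer with MgCl2, 30 min, 22 °C.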

[1] = target: ErbB2 with Exon 20 YVMA insertion (HER2-YVMA) (Homo sapiens (Human), UniProt P04626, INS775YVMA); assay: Cellular phosphorylation assay, constitutive ErbB2 phosphorylation (Y1196) in engineered NIH 3T3 cells, Assay 4; assay type: cell-based
ErbB2 with Exon 20 YVMA insertion (HER2-YVMA), sequence (P04626 other isoform, or with tags, fused parts or gaps ins YVMA behind 775): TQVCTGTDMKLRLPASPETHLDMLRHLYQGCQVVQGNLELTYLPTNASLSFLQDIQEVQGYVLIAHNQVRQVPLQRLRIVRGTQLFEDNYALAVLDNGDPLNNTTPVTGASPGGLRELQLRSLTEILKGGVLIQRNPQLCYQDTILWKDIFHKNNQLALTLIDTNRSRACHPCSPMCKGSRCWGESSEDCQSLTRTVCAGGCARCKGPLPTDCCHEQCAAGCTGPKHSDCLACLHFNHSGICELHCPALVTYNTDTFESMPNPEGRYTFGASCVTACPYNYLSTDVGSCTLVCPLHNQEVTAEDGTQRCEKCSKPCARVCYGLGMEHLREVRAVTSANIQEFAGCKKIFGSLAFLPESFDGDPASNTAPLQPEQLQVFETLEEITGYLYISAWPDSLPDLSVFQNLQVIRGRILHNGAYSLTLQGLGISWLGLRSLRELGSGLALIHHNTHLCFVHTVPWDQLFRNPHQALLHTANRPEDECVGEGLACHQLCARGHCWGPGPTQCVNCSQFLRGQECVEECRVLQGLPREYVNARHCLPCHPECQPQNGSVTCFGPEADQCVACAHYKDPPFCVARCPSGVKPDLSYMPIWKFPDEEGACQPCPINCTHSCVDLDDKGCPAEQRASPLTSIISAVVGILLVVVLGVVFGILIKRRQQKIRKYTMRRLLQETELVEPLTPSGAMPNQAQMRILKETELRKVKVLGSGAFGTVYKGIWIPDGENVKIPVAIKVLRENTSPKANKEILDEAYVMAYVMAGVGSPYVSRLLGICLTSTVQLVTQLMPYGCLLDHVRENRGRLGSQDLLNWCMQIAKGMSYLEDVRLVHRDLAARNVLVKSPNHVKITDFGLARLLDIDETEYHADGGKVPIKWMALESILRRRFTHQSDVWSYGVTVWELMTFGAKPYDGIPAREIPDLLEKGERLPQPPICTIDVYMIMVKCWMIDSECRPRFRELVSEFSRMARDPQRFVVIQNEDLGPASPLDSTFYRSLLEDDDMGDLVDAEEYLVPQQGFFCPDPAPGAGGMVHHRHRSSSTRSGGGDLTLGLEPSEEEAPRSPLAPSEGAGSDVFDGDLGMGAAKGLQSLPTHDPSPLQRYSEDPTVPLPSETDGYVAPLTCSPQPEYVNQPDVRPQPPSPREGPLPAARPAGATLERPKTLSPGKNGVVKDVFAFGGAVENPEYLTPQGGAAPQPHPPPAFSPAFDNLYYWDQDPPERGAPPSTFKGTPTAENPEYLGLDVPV
Outline: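 In-cell Western in NIH 3T3 cells carrying ErbB2 exon 20 YVMA insertion, with no ligand stimulation. One hour compound exposure at 37 °C before fixation and anti-pY1196 plus GAPDH staining with dual-wavelength fluorescence. IC50 derived after GAPDH normalization.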

BCRP = BCRP (Homo sapiens (Human), UniProt Q9UNQ0); assay: BCRP transfected MDCKII canine Mdr1 knockout permeability/efflux, Assay 9; conditions: dog, Assay 9 Pe Ratio, efflux ratio Papp(B-A)/Papp(A-B), BCRP transfected MDCKII canine Mdr1 knockout
[2] = target: ErbB2 insYVMA (HER2-YVMA, SEQ ID NO: 2) (Homo sapiens, UniProt P04626, INS775YVMA/P1170A); assay: biochemical; conditions: ErbB2 insYVMA enzyme assay; read-out: Assay 1 IC50
EGFR wild type (EGFR WT) = EGFR wild type (EGFR WT) (Homo sapiens (Human), UniProt P00533); assay: Cellular phosphorylation assay, EGF-stimulated EGFR phosphorylation in engineered NIH 3T3 cells, Phospho-EGFR DuoSet IC ELISA, Assay 5; assay type: cell-based
EGFR wild type (EGFR WT), sequence (P00533 25-1210): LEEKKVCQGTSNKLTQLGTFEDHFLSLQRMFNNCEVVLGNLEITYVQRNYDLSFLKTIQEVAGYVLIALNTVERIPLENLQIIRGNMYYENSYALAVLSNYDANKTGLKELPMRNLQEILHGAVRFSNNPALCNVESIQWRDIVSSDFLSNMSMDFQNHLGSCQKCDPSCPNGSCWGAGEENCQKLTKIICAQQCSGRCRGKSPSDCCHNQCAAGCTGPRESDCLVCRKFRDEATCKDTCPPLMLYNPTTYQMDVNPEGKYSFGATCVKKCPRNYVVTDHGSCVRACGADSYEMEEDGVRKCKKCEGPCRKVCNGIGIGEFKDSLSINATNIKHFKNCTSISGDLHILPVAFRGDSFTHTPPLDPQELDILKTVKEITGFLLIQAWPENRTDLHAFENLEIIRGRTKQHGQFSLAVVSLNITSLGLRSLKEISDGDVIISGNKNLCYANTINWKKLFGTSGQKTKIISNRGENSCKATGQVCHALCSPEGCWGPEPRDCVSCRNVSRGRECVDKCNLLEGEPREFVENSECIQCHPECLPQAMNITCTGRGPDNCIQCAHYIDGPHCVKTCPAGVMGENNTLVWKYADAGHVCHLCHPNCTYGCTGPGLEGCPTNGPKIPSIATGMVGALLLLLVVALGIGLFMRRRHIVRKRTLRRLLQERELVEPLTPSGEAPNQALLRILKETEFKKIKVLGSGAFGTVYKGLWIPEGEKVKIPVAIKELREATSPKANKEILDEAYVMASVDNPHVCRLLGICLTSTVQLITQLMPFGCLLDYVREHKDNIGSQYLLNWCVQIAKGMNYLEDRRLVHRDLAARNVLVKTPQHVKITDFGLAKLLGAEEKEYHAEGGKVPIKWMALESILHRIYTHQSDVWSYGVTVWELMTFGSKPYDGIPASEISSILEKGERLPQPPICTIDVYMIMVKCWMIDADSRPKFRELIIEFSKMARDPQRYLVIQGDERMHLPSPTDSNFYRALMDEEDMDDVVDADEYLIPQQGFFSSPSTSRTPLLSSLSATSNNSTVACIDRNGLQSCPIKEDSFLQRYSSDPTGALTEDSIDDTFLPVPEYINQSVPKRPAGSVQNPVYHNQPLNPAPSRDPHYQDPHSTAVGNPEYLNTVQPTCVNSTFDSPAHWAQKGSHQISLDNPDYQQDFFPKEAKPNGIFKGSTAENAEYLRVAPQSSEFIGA
Outline: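 Phospho-EGFR ELISA on lysates of engineered NIH 3T3 EGFR WT cells, IC50 derived from concentration curves. Cells plated at 20,000/well overnight, given compound dilutions 1 h at 37 °C, then rEGF 100 ng/ml for a further 10 min before lysis.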

ErbB2 WT = ErbB2 WT (Homo sapiens (Human), UniProt P04626); assay: ErbB enzyme assay (CisBio HTRF KinEASE-TK), Assay 2; assay type: biochemical
ErbB2 WT, sequence (P04626 23-1255): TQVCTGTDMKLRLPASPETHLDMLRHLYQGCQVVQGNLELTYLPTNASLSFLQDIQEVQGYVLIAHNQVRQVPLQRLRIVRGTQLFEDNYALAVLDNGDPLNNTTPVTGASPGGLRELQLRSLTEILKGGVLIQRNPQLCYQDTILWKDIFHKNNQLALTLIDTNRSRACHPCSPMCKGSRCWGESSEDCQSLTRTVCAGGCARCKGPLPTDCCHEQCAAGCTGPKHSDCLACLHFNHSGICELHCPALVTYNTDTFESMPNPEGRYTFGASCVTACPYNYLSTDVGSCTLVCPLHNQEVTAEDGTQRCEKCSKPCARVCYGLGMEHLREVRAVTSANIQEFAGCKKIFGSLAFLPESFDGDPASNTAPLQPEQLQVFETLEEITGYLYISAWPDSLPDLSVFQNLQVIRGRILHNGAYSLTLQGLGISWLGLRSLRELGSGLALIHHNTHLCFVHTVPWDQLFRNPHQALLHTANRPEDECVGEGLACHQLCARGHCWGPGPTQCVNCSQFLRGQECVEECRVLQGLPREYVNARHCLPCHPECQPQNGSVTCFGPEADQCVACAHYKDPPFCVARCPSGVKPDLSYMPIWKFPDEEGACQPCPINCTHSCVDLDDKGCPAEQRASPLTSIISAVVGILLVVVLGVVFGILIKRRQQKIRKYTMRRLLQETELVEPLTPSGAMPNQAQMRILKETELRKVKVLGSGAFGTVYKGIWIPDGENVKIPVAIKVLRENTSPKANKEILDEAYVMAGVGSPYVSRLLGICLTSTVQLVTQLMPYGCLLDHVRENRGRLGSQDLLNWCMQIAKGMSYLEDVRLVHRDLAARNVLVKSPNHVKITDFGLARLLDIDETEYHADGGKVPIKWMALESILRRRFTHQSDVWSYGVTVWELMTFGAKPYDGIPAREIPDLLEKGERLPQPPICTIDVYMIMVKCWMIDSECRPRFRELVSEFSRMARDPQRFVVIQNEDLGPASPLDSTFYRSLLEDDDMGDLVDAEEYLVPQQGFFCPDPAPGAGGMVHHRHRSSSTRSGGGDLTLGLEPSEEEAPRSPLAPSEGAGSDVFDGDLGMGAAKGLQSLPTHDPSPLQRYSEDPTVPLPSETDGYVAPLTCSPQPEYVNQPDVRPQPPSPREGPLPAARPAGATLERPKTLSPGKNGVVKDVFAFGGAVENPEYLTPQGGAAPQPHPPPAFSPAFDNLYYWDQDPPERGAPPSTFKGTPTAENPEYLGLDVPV
Outline: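 Readout is HTRF KinEASE-TK, using Sa-XL665 and cryptate antibody for 1 h at 22 °C, as percent of control between DMSO-only (100) and pre-quenched (0) reactions. The kinase reaction runs 30 min at 22 °C with 1 mM ATP and 250 nM biotinylated TK substrate, in HEPES pH 7.4 with MgCl2 and 2% DMSO.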

[3] = LLC-PK1, Assay 6 Pe Ratio, efflux ratio Papp(B-A)/Papp(A-B), MDR1 transfected LLC-PK1

EGFR, sequence (P00533 25-1210): as the sequence (P00533 25-1210) above

SMILES	efflux ratio at 2 h, 1 μM (MDR1 (P-gp); [3])	IC50 (EGFR)	IC50 [1]	efflux ratio at 2 h, 1 μM (BCRP)	IC50 [2]	IC50 (EGFR wild type (EGFR WT))	IC50 (ErbB2 WT)	efflux ratio at 2 h, 1 μM (MDR1 (P-gp); LLC-PK1)
Cc1cc(Nc2ncnc3cnc(N4CC5C6CCC(O6)C5C4)nc23)ccc1Oc1ccc2c(c1)ncn2C (stereo not drawn) [Example 16, N-(3-methyl-4-((1-methyl-1H-benzo[d]imidazol-5-yl)oxy)phenyl)-6-(octahydro-2H-4,7-epoxyisoindol-2-yl)pyrimido[5,4-d]pyrimidin-4-amine]	1.2	≥ 10 µM	0.0152 µM	1.8	0.026 µM	≥ 5 µM		
Cc1cc(Nc2ncnc3cnc(N4C[C@@H](C)O[C@@H](C)C4)nc23)ccc1Oc1ccc2c(c1)ncn2C [Example 25, 6-((2S,6R)-2,6-dimethylmorpholino)-N-(3-methyl-4-((1-methyl-1H-benzo[d]imidazol-5-yl)oxy)phenyl)pyrimido[5,4-d]pyrimidin-4-amine]	1.7	≥ 10 µM	0.0534 µM	1.4	0.172 µM		0.329 µM	
Cc1cc(Nc2ncnc3cnc(N4CC[C@H](C(C)(C)O)C4)nc23)ccc1Oc1ccc2c(c1)ncn2C [Example 126, (S)-2-(1-(8-((3-methyl-4-((1-methyl-1H-benzo[d]imidazol-5-yl)oxy)phenyl)amino)pyrimido[5,4-d]pyrimidin-2-yl)pyrrolidin-3-yl)propan-2-ol]	3.8	≥ 10 µM	0.0143 µM		0.0155 µM	≥ 5 µM	0.0183 µM	
Cc1cc(Nc2ncnc3cnc(N(C)CC4(O)CC4)nc23)ccc1Oc1ccc2c(c1)ncn2C [Example 166, 1-((methyl(8-((3-methyl-4-((1-methyl-1H-benzo[d]imidazol-5-yl)oxy)phenyl)amino)pyrimido[5,4-d]pyrimidin-2-yl)amino)methyl)cyclopropan-1-ol]	4.6	≥ 10 µM	0.003 µM		0.0161 µM	≥ 5 µM	0.0397 µM	
Cc1cc(Nc2ncnc3cnc(N4CCOC(C(F)F)C4)nc23)ccc1Oc1ccc2c(c1)ncn2C (stereo not drawn) [Example 181, 6-(2-(difluoromethyl)morpholino)-N-(3-methyl-4-((1-methyl-1H-benzo[d]imidazol-5-yl)oxy)phenyl)pyrimido[5,4-d]pyrimidin-4-amine]	0.3	≥ 10 µM	0.0534 µM		0.0815 µM	≥ 5 µM	0.171 µM	
Cc1cc(Nc2ncnc3cnc(N4CC5(CC5)CO4)nc23)ccc1Oc1ccc2c(c1)ncn2C [Example 187, N-(3-methyl-4-((1-methyl-1H-benzo[d]imidazol-5-yl)oxy)phenyl)-6-(5-oxa-6-azaspiro[2.4]heptan-6-yl)pyrimido[5,4-d]pyrimidin-4-amine]		≥ 10 µM	0.0143 µM		0.0384 µM	≥ 5 µM	0.109 µM	2.7
Cc1cc(Nc2ncnc3cnc(NCC(C)(C)C#N)nc23)ccc1Oc1ccc2c(c1)ncn2C [Example 200, 2,2-dimethyl-3-((8-((3-methyl-4-((1-methyl-1H-benzo[d]imidazol-5-yl)oxy)phenyl)amino)pyrimido[5,4-d]pyrimidin-2-yl)amino)propanenitrile]	8.1	≥ 10 µM	0.0149 µM		0.0186 µM	4.52 µM	0.0526 µM	
Cc1cc(Nc2ncnc3cnc(N)nc23)ccc1Oc1ccc2c(c1)ncn2C [Example 206, N8-(3-methyl-4-((1-methyl-1H-benzo[d]imidazol-5-yl)oxy)phenyl)pyrimido[5,4-d]pyrimidine-2,8-diamine bis(2,2,2-trifluoroacetate)]	3.3	≥ 10 µM	0.0248 µM		0.0126 µM	≥ 5 µM	0.0408 µM	
Cc1cc(Nc2ncnc3cnc(N4CCC(C)(O)CC4)nc23)ccc1Oc1ccc2c(c1)ncn2C [Example 209, 4-methyl-1-(8-((3-methyl-4-((1-methyl-1H-benzo[d]imidazol-5-yl)oxy)phenyl)amino)pyrimido[5,4-d]pyrimidin-2-yl)piperidin-4-ol]	3.3	9.53 µM	0.0117 µM		0.0292 µM	≥ 5 µM	0.0579 µM	
Cc1cc(Nc2ncnc3cnc(-c4ncco4)nc23)ccc1Oc1ccc2c(c1)ncn2C [Example 226]	3.2	≥ 10 µM	0.0654 µM		0.0927 µM	≥ 5 µM	0.128 µM	
Cc1cc(Nc2ncnc3cnc(N4CCCC45COC5)nc23)ccc1Oc1ccc2c(c1)ncn2C [Example 230]	2.5	8.56 µM	0.0157 µM		0.0258 µM	≥ 5 µM	0.0292 µM	
Cc1cc(Nc2ncnc3cnc(N4CC(CS(C)(=O)=O)C4)nc23)ccc1Oc1ccc2c(c1)ncn2C [Example 232]	31.3	6.41 µM	0.0396 µM		0.0153 µM	≥ 5 µM	0.0124 µM	
